Test results: patent US20150368248A1, “2-SUBSTITUTED-6-BIARYLMETHYLAMINO-9-CYCLOPENTYL-9H-PURINE DERIVATIVES, USE THEREOF AS MEDICAMENTS, AND PHARMACEUTICAL COMPOSITIONS” (UNIVERZITA PALACKEHO V OLOMOUCI, priority 2013, published 2015)
Blank lines part the entries; values can stand above or below the compound they belong to.

What was measured:
HepG2 = experiment: MTT cytotoxicity assay (Example 30); format: cell-based; details: Homo sapiens, HepG2, 72 h; MTT, three days after drug addition; read-out: Inhibitory concentration IC50, HepG2
Excerpt: Cytotoxicity of the compounds is the major property determining their anticancer effect in vivo. One of the parameters used, as the basis for cytotoxicity assays, is the metabolic activity of viable cells. For example, a microtiter assay, which uses (3-(4,5-Dimethylthiazol-2-yl)-2,5-diphenyltetrazolium bromide (MTT), is widely used to quantitate cell proliferation and cytotoxicity. For instance, this assay is used in drug screening programs and in chemosensitivity testing. Because only metabolically active living cells reduce MTT to correspond purple formazan dye, these assays detect viable cells exclusively. The quantity of reduced MTT corresponds to the number of vital cells in the culture.
(§1) We have been using the following cell lines: HUH-7 and PLC/PRF/5 cell lines were maintained in DMEM supplemented with 10% fetal bovine serum, penicillin (100 U/ml) and streptomycin (100 μg/ml). Unique HCC-1.2 (3p) and HCC-1.1 (3sp) cell lines (Zilj et al., 2009, Future Oncol, 5(8):1169-79) and Hep3B cells were cultivated in RPMI supplemented with 10% fetal bovine serum, penicillin (100 U/ml) and streptomycin (100 μg/ml). HepG2 cell line was maintained in EMEM supplemented with 10% fetal bovine serum, sodium pyruvate (0.11 g/1), penicillin (100 U/ml) and streptomycin (100 μg/ml). All cell lines were cultivated at 37° C. in 5% CO2. For cytotoxicity assays, 3000 cells (10000 cells in case of HepG2 cell line) were seeded into each well of 96 well plate and the next day tested compounds were added at various concentrations in triplicates. Three days after drug addition MTT stock solution (5 mg/ml) was added into each well and incubated for 4 h. After this incubation period, produced formazan was dissolved by DMSO and final absorbance was measured at 570 nm with Synergy H4 Hybrid Multi-Mode Microplate Reader.

PLC/PRF/5 = experiment: MTT cytotoxicity assay (Example 30); format: cell-based; details: Homo sapiens, PLC-PRF-5, 72 h; MTT, three days after drug addition; read-out: Inhibitory concentration IC50, PLC/PRF/5
Experimental: (§2) Cytotoxicity of the compounds is the major property determining their anticancer effect in vivo. One of the parameters used, as the basis for cytotoxicity assays, is the metabolic activity of viable cells.
as §1, with “Unique HCC-1.2 (3p) and HCC-1.1 (3sp) cell lines (Zilj et al., 2009, Future Oncol, 5(8):1169-79) and Hep3B cells were cultivated in RPMI supplemented with 10% fetal bovine serum, penicillin (100 U/ml) and streptomycin (100 μg/ml).” left out

HCC-1.1 (3sp) = experiment: MTT cytotoxicity assay (Example 30); format: cell-based; details: Homo sapiens, 72 h; MTT, three days after drug addition; read-out: Inhibitory concentration IC50, 3sp
Experimental: as §2
as §1, with “Unique HCC-1.2 (3p) and HCC-1.1 (3sp) cell lines (Zilj et al., 2009, Future Oncol, 5(8):1169-79) and Hep3B cells were cultivated in RPMI supplemented with 10% fetal bovine serum, penicillin (100 U/ml) and streptomycin (100 μg/ml).” left out

HUH-7 = experiment: MTT cytotoxicity assay (Example 30); format: cell-based; details: Homo sapiens, Huh-7, 72 h; MTT, three days after drug addition; read-out: Inhibitory concentration IC50, HUH-7
Experimental: as §2
as §1, with “Unique HCC-1.2 (3p) and HCC-1.1 (3sp) cell lines (Zilj et al., 2009, Future Oncol, 5(8):1169-79) and Hep3B cells were cultivated in RPMI supplemented with 10% fetal bovine serum, penicillin (100 U/ml) and streptomycin (100 μg/ml).” left out

HCC-1.2 (3p) = experiment: MTT cytotoxicity assay (Example 30); format: cell-based; details: Homo sapiens, HCC-1.2, 72 h; MTT, three days after drug addition; read-out: Inhibitory concentration IC50, 3p
Experimental: as §2
as §1, with “Unique HCC-1.2 (3p) and HCC-1.1 (3sp) cell lines (Zilj et al., 2009, Future Oncol, 5(8):1169-79) and Hep3B cells were cultivated in RPMI supplemented with 10% fetal bovine serum, penicillin (100 U/ml) and streptomycin (100 μg/ml).” left out

Hep3B = experiment: MTT cytotoxicity assay (Example 30); format: cell-based, human; details: Homo sapiens, Hep3B, 72 h; MTT, three days after drug addition; read-out: Inhibitory concentration IC50, Hep3B
Experimental: as §2
as §1, with “Unique HCC-1.2 (3p) and HCC-1.1 (3sp) cell lines (Zilj et al., 2009, Future Oncol, 5(8):1169-79) and Hep3B cells were cultivated in RPMI supplemented with 10% fetal bovine serum, penicillin (100 U/ml) and streptomycin (100 μg/ml).” left out

[1] = test system: caspase-3/7 activity in Hep3B cell line; experiment: One-step cellular caspase-3/7 activity assay; format: cell-based, human; details: 24 hours, 0 nM = 1.00
Experimental: (§3) Measurements of proapoptotic properties of new compounds were based on quantification of enzymatic activities of caspases, concretely caspases-3/7. Activity of cellular caspase-3/7 was measured according to Carrasco et al., 2003, BioTechniques, 34(5): 1064-67. Briefly, Hep3B and PLC/PRF/5 cells were incubated in the densities of 10000 cells/well in a 96-well plate overnight. Next day, the compounds in appropriate concentrations were added and cells were incubated for the 24 hours. After incubation, 3× caspase-3/7 assay buffer (150 mM HEPES pH 7.4, 450 mM NaCl, 150 mM KCl, 30 mM MgCl2, 1.2 mM EGTA, 1.5% Nonidet P40, 0.3% CHAPS, 30% sucrose, 30 mM DTT, 3 mM PMSF) with 150 μM Ac-DEVD-AMC as a substrate (Sigma-Aldrich) was added to the wells and plates were incubated at […]. The caspase-3/7 activity was measured after 6 hours using Fluoroskan Ascent microplate reader (Labsystems) at 346 nm/442 nm (excitation/emission).

[2] = test system: caspase-3/7 activity in PLC/PRF/5 cell line; experiment: One-step cellular caspase-3/7 activity assay; format: cell-based, human; details: 24 hours incubation, relative to 0 nM = 1.00
Experimental: as §3

[3] = test system: p53-regulated transcription in Arn8 cells; experiment: p53-dependent transcriptional activity, β-galactosidase reporter; format: cell-based; details: 24 h incubation
Experimental: Stronger anticancer activity of the compounds is enhanced by its positive impact on stability and activity of the tumour suppressor p53. To measure p53-dependent transcriptional activity, β-galactosidase activity was quantified in the melanoma cell line Arn8, which had been established using stable transfection of cells with a p53-responsive reporter construct pRGCAfoslacZ (Frebung et al., Cancer Res., 52, 1992-6976). Briefly, after 24 h incubation with the inhibitors the Arn8 cells were permeabilized with 0.3% Triton X-100 for 15 min and then 4-methylumbelliferon-β-D-galactopyranoside was added as a substrate to the final concentration of 80 μM. After 1 h the fluorescence of product 4-methylumbelliferon was measured at 355/460 nm (ex/em) with a Fluoroskan Ascent microplate reader (Labsystems). Data in Tab. 8 present that series of 2-substituted-6-biarylmethylamino-9-cyclopentyl-9H-purine derivatives show a dose-dependent activatory effect on p53-regulated transcription, with the maximum impact observed between 100 and 500 nM concentrations for most of prepared compounds (Tab. 8).

CDK9/Cyclin T1 = target: T1, CDK9/Cyclin T1 (Homo sapiens, UniProt P50750); experiment: Kinase inhibition assay, recombinant kinase, [γ-33P]ATP; format: biochemical; details: read-out: Residual kinase activity, CDK9
T1 construct: purchased ProQinase GmbH (Freiburg, Germany)
Experimental: (§4) CDK2/Cyclin E kinase was produced in Sf9 insect cells via baculoviral infection and purified on a NiNTA column (Qiagen). CDK5/p35, CDK7Cyclin H/MAT1 and CDK9/Cyclin T1 was purchased from ProQinase GmbH. The kinase reactions were assayed with 1 mg/mL histone H1 (for CDK2 and CDK5) or (YSPTSPS)2KK peptide (for CDK7 and CDK9) in the presence of 15/0.15/1.5/1.5 μM ATP (for CDK2/CDK5/CDK7CDK9), 0.05 μCi [γ-^33P]ATP and of the test compound in a final volume of 10 μL, all in a reaction buffer (60 mM HEPES-NaOH, pH 7.5, 3 mM MgCl2, 3 mM MnCl2, 3 μM Na-orthovanadate, 1.2 mM DTT, 2.5 μg/50 μl PEG20,000). The reactions were stopped by adding 5 μL of 3% aq H3PO4. Aliquots were spotted onto P-81 phosphocellulose (Whatman), washed 3× with 0.5% aq H3PO4 and finally air-dried.
(§5) CDK1/cyclin B and CDK2/cyclin E kinases were produced in Sf9 insect cells via baculoviral infection, while CDK5/p35, CDK7/cyclin H/MAT1, and CDK9/cyclin T1 were purchased from ProQinase (Freiburg, Germany) and assayed as described previously (35). The kinase reactions were assayed with 1 mg/ml histone H1 (for CDK2 and CDK5) or (YSPTSPS)2KK peptide (for CDK7 and CDK9) in the presence of 15/0.15/1.5/1.5 […] ATP (for CDK2/CDK5/CDK7CDK9), […] [γ-^33P]ATP and of the test compound in a final volume of […]. The reaction buffer contained 60 mM HEPES-NaOH, pH 7.5, 3 mM MgCl2, 3 mM MnCl2, 3 mM Na-orthovanadate, 1.2 mM DTT, 2.5 mg/50 ml PEG20.000. The reactions were stopped by adding […] of 3% H3PO4. Aliquots were spotted onto P-81 phosphocellulose (Whatman, GE Healthcare Biosciences, Pittsburgh, USA), washed 3 times with 0.5% H3PO4 and finally air-dried. Kinase inhibition was quantified using a FLA-7000 digital image analyzer (Fujifilm, Tokyo, Japan).

CDK7/cyclin H/MAT1 = target: T2, CDK7/cyclin H/MAT1 (Homo sapiens, UniProt P50613); experiment: as above; format: biochemical; details: read-out: Residual kinase activity, CDK7
T2 construct: purchased ProQinase GmbH (Freiburg, Germany)
Experimental: as §4, §5

CDK5/p35 = target: T3, CDK5/p35 (Homo sapiens, UniProt Q00535); experiment: as above; format: biochemical; details: read-out: Residual kinase activity, CDK5
T3 construct: purchased ProQinase GmbH (Freiburg, Germany)
Experimental: as §4, §5

T3 sequence (Q00535 whole entry): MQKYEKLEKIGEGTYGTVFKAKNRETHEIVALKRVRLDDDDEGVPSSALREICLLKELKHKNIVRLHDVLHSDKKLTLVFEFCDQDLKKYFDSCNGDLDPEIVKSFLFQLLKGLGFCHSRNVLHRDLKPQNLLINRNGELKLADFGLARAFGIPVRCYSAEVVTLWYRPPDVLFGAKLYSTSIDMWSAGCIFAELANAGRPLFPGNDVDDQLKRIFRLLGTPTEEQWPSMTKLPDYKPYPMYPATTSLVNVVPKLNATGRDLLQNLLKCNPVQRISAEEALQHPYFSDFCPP
T3 sequence (Q15078 whole entry partner): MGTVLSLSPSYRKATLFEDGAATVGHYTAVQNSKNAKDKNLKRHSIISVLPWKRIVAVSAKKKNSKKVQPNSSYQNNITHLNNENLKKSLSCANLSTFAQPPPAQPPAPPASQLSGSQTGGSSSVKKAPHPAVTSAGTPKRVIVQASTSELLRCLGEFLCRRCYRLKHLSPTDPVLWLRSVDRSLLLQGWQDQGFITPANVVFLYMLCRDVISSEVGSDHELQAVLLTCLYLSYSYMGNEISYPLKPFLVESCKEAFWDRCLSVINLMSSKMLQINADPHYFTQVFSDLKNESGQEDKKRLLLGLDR
T2 sequence (P50613 whole entry): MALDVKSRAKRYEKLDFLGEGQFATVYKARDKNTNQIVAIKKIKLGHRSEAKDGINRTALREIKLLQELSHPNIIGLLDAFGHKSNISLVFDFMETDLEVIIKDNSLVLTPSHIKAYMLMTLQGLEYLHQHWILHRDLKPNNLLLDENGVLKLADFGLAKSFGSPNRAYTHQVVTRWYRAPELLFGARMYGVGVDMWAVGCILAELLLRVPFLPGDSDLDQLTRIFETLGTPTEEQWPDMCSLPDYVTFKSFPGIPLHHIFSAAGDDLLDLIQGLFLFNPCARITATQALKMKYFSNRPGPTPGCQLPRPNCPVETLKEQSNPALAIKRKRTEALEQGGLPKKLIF
T2 sequence (P51946 whole entry partner): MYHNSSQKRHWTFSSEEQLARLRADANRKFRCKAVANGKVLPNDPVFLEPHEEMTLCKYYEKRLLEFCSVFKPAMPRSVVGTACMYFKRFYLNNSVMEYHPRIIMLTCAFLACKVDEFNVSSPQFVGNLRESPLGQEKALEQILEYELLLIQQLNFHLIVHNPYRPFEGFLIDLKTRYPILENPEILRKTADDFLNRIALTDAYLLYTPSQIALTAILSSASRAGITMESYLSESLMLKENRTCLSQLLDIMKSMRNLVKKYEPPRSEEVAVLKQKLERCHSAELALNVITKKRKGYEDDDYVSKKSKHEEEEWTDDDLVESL
T2 sequence (P51948 whole entry partner): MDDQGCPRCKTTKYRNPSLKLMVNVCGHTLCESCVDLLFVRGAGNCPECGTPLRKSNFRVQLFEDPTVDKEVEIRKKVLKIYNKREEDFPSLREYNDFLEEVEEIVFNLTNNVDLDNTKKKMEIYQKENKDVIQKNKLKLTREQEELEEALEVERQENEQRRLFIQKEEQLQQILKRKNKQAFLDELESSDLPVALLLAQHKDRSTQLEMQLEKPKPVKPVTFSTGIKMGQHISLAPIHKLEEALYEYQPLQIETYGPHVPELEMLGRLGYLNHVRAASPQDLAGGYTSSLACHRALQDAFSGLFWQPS
T1 sequence (P50750 whole entry): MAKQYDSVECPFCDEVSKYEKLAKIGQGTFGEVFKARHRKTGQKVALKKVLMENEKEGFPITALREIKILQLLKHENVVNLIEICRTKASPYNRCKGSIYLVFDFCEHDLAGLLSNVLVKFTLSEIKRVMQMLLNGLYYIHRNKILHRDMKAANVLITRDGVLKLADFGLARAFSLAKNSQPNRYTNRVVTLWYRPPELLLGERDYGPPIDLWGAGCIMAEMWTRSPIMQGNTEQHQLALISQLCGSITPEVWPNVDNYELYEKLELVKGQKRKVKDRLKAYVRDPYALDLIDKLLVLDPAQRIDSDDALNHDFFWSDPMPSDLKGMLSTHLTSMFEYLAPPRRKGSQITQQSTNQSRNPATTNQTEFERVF
T1 sequence (O60563 whole entry partner): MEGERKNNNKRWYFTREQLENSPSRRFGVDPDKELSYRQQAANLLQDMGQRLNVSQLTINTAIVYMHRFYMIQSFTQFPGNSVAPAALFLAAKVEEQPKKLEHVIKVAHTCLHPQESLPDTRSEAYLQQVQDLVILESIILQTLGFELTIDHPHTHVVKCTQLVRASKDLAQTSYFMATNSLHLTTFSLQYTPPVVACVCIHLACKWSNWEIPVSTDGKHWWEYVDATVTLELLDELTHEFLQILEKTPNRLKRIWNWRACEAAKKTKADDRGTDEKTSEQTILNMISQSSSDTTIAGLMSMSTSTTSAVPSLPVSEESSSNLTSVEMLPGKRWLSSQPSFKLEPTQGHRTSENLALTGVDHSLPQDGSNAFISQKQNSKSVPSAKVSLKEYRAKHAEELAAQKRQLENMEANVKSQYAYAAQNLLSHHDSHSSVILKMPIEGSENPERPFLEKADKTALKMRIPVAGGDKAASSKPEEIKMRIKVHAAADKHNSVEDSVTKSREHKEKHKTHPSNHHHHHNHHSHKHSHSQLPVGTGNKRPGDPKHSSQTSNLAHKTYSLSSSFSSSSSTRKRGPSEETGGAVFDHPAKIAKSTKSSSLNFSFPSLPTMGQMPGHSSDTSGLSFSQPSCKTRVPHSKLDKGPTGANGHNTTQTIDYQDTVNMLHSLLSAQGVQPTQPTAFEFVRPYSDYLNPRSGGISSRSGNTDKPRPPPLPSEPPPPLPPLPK

melting point: 114 to 116 °C
Structure (SMILES): NC1CCC(Nc2nc(NCc3ccc(Br)nc3)c3ncn(C4CCCC4)c3n2)CC1 (centres unmarked) [BP110, N^2-(4-amino-cyclohexyl)-N^6-(6-bromo-pyridin-3-ylmethyl)-9-cyclopentyl-9H-purine-2,6-diamine]
IC50 (HepG2): > 1000 nM | IC50 (PLC/PRF/5): 400 nM | IC50 (HCC-1.1 (3sp)): 515 nM | IC50 (HUH-7): 513 nM | IC50 (HCC-1.2 (3p)): 334 nM | IC50 (Hep3B): 488 nM

remaining activity at 0.1 µM (CDK9/Cyclin T1; 100 nM): 52.7% | remaining activity at 1 µM (CDK9/Cyclin T1; 1000 nM): 23.2% | remaining activity at 0.1 µM (CDK7/cyclin H/MAT1; 100 nM): 76.3% | remaining activity at 1 µM (CDK7/cyclin H/MAT1; 1000 nM): 68.3% | remaining activity at 0.1 µM (CDK5/p35; 100 nM): 76.7% | remaining activity at 1 µM (CDK5/p35; 1000 nM): 39.6% | melting point: 128 to 129 °C
Structure (SMILES): CC(C)(O)CNc1nc(NCc2ccc(-c3ccco3)nc2)c2ncn(C3CCCC3)c2n1 [BP117, 1-{9-cyclopentyl-6-[(6-furan-2-yl-pyridin-3-ylmethyl)-amino]-9H-purine-2-ylamino}-2-methyl-propan-2-ol]
Relative caspase-3/7 activity in Hep3B cell line ([1]; 200 nM): 0.77 | Relative caspase-3/7 activity in Hep3B cell line ([1]; 400 nM): 0.89 | Relative caspase-3/7 activity in Hep3B cell line ([1]; 800 nM): 1.06 | Relative caspase-3/7 activity in Hep3B cell line ([1]; 1600 nM): 2.00 | Relative caspase-3/7 activity in PLC/PRF/5 cell line ([2]; compound concentration 160 nM): 0.79 | Relative caspase-3/7 activity in PLC/PRF/5 cell line ([2]; compound concentration 320 nM): 1.17 | Relative caspase-3/7 activity in PLC/PRF/5 cell line ([2]; compound concentration 640 nM): 2.60 | Relative caspase-3/7 activity in PLC/PRF/5 cell line ([2]; compound concentration 1280 nM): 2.99 | Concentration of maximum activation [3]: 950 nM
